# In publication PMC7280195, “Simple ammonium salts acting on sigma-1 receptors yield potential treatments for cancer and depression” (Scientific Reports, 2020):
# Where a name gives a salt, the structure may show the parent alone. Read-outs that look alike come from different tables or passages of the source.
# How the values were obtained:
# [1] = target: muscarinic acetylcholine receptor; assay type: binding, rat; details: for mACh R affinity pKi ± SEM (n) / Ki: rat brain membranes; for mACh R affinity pKi ± SEM (n): 1.35 nM [3H] QNB; for Ki: read-out: mACh R affinity Ki; for mACh R Ki/σ-1 R Ki: ratio between Ki values
# mice [2] = experiment: Forced-swim test; assay type: in vivo
# sigma-2 receptor = target: T1, sigma-2 receptor (Homo sapiens, UniProt Q5BJF2); experiment: biochemical; assay type: binding
# T1 construct: MCF7 cells were suspended in sigma-2 assay buffer (50 mM Tris-HCl; pH 8.0), sonicated (1 minute) and the homogenate was centrifuged; endogenous in cells; host or cells: MCF7 cells (gift), membrane pellet
# MDA-MB-468 cells [3] = experiment: Fura-2 cytoplasmic calcium measurement in MDA-MB-468 cells; assay type: cell-based
# MDA-MB-468 cells [4] = experiment: cells; assay type: cell-based
# [5] = target: T2, human dopamine transporter (Homo sapiens, UniProt Q01959); experiment: Monoamine transporter uptake assay, 293 cells expressing dopamine transporter; assay type: cell-based; details: for IC50: read-out: IC50 dopamine transport
# T2 construct: expressed in transfected cells
# mice [6] = experiment: Tail suspension test; assay type: in vivo
# human 5-HT transporter = human 5-HT transporter (Homo sapiens, UniProt P31645); assay type: cell-based; details: for IC50: read-out: IC50 serotonin reuptake
# mice [7] = experiment: Locomotor activity (Actophotometer); assay type: in vivo; details: control 140 ± 15
# Description: All drugs were dissolved in normal saline and different doses were administered intraperitoneally in a fixed volume of 1 ml.100 g^−1 body weight 30 minutes before the animals were subjected to the test.
# Locomotor activity (ambulations) was measured by using a computerised Actophotometer (IMCORP, India). […] Mice were allowed to acclimatise to the observation chamber for a period of 2 minutes. The activity was monitored continuously for a period of 15 minutes. Locomotion was expressed in terms of total photobeam counts per 15 minutes per animal and compared to vehicle control groups as previously described.
# [8] = target: human noradrenaline transporter (Homo sapiens, UniProt P23975); experiment: Monoamine transporter uptake assay, 293 cells expressing noradrenaline transporter; assay type: cell-based; details: for IC50: read-out: IC50 noradrenaline transport
# dopamine transporter = system: dopamine transporter; parameters: method as in PMID 10525084; details: read-out: dopamine transport inhibition, previously published; cited from earlier work
# muscarinic receptor = target: muscarinic receptor; parameters: method as in PMID 11834244; details: cited from earlier work
# MCF7 cells = assay type: cell-based
# [9] = target: noradrenaline transporter; details: read-out: Ki noradrenaline transport, previously published; cited from earlier work
# MAC13 tumours = details: for MAC13 tumour growth compared to vehicle control: 10 mg.kg−1 i.v. daily from day 12, P < 0.001; for tolerability in tumour-bearing mice: 10 mg.kg−1 i.v. daily, grooming activity maintained
# MAC13 cells = experiment: MTS assay in MAC13 cells in vitro; assay type: cell-based, mouse; details: mean ± SEM, n = 6
# Description: Cells (10,000 cells per well, 100 μl) were seeded into 96-well plates and allowed to adhere overnight. The following day drugs were added and cells were permitted to proliferate for 24 hours before the addition of 10 μl CellTiter 96 AQueous Non-Radioactive Cell Proliferation Assay reagent (Promega, Southampton, UK) as previously described. Absorbance (490 nm) readings were taken at 0, 1, 2 and 3 hours to monitor formazan formation and rates of metabolic activity were compared.
# MDA-MB-468 cells [10] = details: cited from earlier work
# MDA-MB-468 cells [11] = details: cited from earlier work; remark: listed apart in the source
# [12] = dipentylammonium 5 mg.kg−1 plus BD1047 4 mg.kg−1
# T1 sequence (Q5BJF2 whole entry): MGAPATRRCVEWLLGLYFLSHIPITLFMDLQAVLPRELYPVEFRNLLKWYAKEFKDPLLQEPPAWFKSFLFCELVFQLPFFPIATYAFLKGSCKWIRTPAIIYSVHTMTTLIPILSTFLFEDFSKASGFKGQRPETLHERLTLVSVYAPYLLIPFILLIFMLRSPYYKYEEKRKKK
# T2 sequence (Q01959 whole entry): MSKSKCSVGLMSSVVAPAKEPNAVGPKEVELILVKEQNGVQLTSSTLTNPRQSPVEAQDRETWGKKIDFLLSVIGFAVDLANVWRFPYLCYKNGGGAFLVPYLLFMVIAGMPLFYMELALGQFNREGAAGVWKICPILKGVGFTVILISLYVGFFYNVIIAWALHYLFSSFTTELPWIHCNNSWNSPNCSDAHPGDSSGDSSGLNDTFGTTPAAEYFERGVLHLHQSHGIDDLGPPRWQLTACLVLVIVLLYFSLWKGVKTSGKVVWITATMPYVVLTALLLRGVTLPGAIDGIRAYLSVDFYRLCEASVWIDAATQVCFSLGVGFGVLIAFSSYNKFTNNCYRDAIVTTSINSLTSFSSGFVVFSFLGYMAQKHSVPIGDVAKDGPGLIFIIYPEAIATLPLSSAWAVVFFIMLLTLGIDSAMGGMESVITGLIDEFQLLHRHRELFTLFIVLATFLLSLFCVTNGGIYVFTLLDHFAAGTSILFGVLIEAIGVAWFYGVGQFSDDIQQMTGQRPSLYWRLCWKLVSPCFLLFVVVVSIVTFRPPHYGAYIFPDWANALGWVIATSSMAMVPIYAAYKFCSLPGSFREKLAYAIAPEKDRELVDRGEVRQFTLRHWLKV
# human noradrenaline transporter, sequence (P23975 whole entry): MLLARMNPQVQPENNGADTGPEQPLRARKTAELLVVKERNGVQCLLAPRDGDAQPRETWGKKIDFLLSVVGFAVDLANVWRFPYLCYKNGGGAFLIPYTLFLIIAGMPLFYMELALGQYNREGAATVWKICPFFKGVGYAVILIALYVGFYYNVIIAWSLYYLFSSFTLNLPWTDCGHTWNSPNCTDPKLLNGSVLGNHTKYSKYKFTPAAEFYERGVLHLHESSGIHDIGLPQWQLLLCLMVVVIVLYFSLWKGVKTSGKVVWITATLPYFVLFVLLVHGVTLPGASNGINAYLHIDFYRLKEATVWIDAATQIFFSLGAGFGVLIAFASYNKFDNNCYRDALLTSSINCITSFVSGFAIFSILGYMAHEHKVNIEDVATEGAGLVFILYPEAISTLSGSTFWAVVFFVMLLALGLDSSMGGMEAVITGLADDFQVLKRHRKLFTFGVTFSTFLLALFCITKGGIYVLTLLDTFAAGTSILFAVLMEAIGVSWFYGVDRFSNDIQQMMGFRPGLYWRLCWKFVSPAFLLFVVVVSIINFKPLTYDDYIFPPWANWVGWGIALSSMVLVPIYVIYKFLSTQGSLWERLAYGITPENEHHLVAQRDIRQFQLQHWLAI
# human 5-HT transporter, sequence (P31645 whole entry): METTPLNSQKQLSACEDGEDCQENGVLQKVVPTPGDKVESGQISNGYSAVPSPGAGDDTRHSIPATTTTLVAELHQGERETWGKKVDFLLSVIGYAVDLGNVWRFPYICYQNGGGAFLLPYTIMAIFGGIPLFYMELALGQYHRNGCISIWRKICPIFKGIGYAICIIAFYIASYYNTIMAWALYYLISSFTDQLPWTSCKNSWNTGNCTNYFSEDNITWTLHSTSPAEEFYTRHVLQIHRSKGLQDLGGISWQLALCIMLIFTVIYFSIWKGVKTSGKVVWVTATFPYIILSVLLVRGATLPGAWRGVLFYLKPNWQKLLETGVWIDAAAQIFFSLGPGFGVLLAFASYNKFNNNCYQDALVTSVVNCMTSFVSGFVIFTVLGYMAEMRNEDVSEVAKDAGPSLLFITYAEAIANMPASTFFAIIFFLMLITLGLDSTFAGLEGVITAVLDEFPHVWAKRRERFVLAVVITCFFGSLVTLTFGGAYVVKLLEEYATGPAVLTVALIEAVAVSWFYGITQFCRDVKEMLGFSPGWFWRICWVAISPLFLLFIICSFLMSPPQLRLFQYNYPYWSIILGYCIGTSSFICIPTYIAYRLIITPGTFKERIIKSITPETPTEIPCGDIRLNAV
compound,measurement,setting,value
"C[C@@H]1CN(CCCn2c3ccccc3c3ccccc32)C[C@H](C)N1 [Rimcazole, 9-[3-(cis−3,5-dimethyl-1-piperizinyl)propyl]-9H-carbazole dihydrochloride, reference compound]",mACh R affinity pKi ± SEM (n),[1],4.49 ± 0.10 (7)
same,mACh R affinity pKi ± SEM (n),[1]; listed as rimcazole,4.5 ± 0.1
same,Ki,[1],32 µM
"CCCCCN(CCCCC)CCCCC [Tripentyl, tripentylammonium]","effect on immobility time, forced-swim test",mice [2]; doses up to 10 mg.kg−1,did not have any significant effect
same,σ-2 R affinity pKi ± SEM (n),sigma-2 receptor,6.1 ± 0.1 (3)
same,Ki,sigma-2 receptor; read-out: σ-2 R affinity Ki,0.78 µM
same,mACh R affinity pKi ± SEM (n),[1],4.3 ± 0.4 (4)
same,Ki,[1],47 µM
same,mACh R Ki/σ-1 R Ki,[1],3130
CCCCCN [Pentyl],σ-2 R affinity pKi ± SEM (n),sigma-2 receptor,3.9 ± 0.1 (3)
same,Ki,sigma-2 receptor; read-out: σ-2 R affinity Ki,130 µM
"CCCCCCCCNCCCCCCCC [Dioctyl, dioctylammonium]",behaviour in the calcium buffer,MDA-MB-468 cells [3]; calcium response could not be assessed,precipitation was observed
same,pIC50 reduction of cell metabolism,MDA-MB-468 cells [4],5.0 ± 0.2
same,σ-2 R affinity pKi ± SEM (n),sigma-2 receptor,7.9 ± 0.5 (3)
same,Ki,sigma-2 receptor; read-out: Ki for sigma-2 receptors,0.013 µM
same,Ki,sigma-2 receptor; read-out: σ-2 R affinity Ki,0.014 µM
"CN(C)CCN(C)CCc1ccc(Cl)c(Cl)c1 [BD1047, N’-[2-(3,4-dichlorophenyl)ethyl]-N,N,N’-trimethylethane-1,2-diamine, reference compound]","time spent immobile, forced-swim test","mice [2]; ip, 4 mg/kg, 0.1 h",217 ± 17 s
"CCCCCNCCCCC [Dipentyl, dipentylammonium]","time spent immobile, forced-swim test","mice [2]; 5 mg.kg−1 i.p., 6 minutes, control 233 ± 10",80 ± 13 s
same,"time spent immobile, forced-swim test",mice [2]; [12],185 ± 5 s
same,pIC50 dopamine transport,[5],3.2 ± 0.2
same,IC50,[5],600 µM
same,"time spent immobile, tail suspension test","mice [6]; 5 mg.kg−1, 6 minutes, control 235 ± 19",116 ± 7 s
same,"time spent immobile, tail suspension test",mice [6]; [12],182 ± 30 s
same,pIC50 serotonin reuptake,human 5-HT transporter,3.0 ± 0.2
same,IC50,human 5-HT transporter,1100 µM
same,locomotion,mice [7]; 5 mg.kg−1 alone,128 ± 19 events in 15 minutes
same,locomotion,mice [7]; [12],114 ± 14 events in 15 minutes
same,pIC50 noradrenaline transport,[8],3.6 ± 0.1
same,IC50,[8],200 µM
same,σ-2 R affinity pKi ± SEM (n),sigma-2 receptor,6.9 ± 0.2 (3)
same,Ki,sigma-2 receptor; read-out: σ-2 R affinity Ki,0.12 µM
same,mACh R affinity pKi ± SEM (n),[1],3.4 ± 0.2 (5)
same,Ki,[1],380 µM
same,mACh R Ki/σ-1 R Ki,[1],8840
CC(C)NC(C)C [Diisopropyl],σ-2 R affinity pKi ± SEM (n),sigma-2 receptor,4.1 ± 0.1 (3)
same,Ki,sigma-2 receptor; read-out: σ-2 R affinity Ki,71 µM
CCCN [Propyl],σ-2 R affinity pKi ± SEM (n),sigma-2 receptor,<3 (3)
"CCCCCCN(CCCCCC)CCCCCC [Trihexyl, trihexylammonium]",σ-2 R affinity pKi ± SEM (n),sigma-2 receptor,6.63 ± 0.03 (3)
same,Ki,sigma-2 receptor; read-out: σ-2 R affinity Ki,0.23 µM
"CCCCCCCCCCN [Decyl, decylammonium]",σ-2 R affinity pKi ± SEM (n),sigma-2 receptor,5.41 ± 0.07 (3)
same,Ki,sigma-2 receptor; read-out: σ-2 R affinity Ki,3.9 µM
CCN(CC)CC [Triethyl],σ-2 R affinity pKi ± SEM (n),sigma-2 receptor,3.66 ± 0.04 (3)
same,Ki,sigma-2 receptor; read-out: σ-2 R affinity Ki,220 µM
CCCCCCCCN.Cl [Octyl],σ-2 R affinity pKi ± SEM (n),sigma-2 receptor,5.2 ± 0.2 (3)
same,Ki,sigma-2 receptor; read-out: σ-2 R affinity Ki,6.2 µM
CC(C)CNCC(C)C [Diisobutyl],σ-2 R affinity pKi ± SEM (n),sigma-2 receptor,5.2 ± 0.2 (3)
same,Ki,sigma-2 receptor; read-out: σ-2 R affinity Ki,6.6 µM
CCCCN [Butyl],σ-2 R affinity pKi ± SEM (n),sigma-2 receptor,3.26 ± 0.05 (3)
same,Ki,sigma-2 receptor; read-out: σ-2 R affinity Ki,550 µM
CCCCCCCCCCCCN(CCCCCCCCCCCC)CCCCCCCCCCCC [Tridodecyl],σ-2 R affinity pKi ± SEM (n),sigma-2 receptor,4.1 ± 0.6 (3)
same,Ki,sigma-2 receptor; read-out: σ-2 R affinity Ki,76 µM
CC(C)=CCN1CC[C@]2(C)c3cc(O)ccc3C[C@H]1[C@H]2C [(+) pentazocine],pKi muscarinic receptor,muscarinic receptor,6.29 ± 0.06
CN(C)C.Cl [Trimethyl],σ-2 R affinity pKi ± SEM (n),sigma-2 receptor,<3 (3)
NC1C2CC3CC(C2)CC1C3 (centres unmarked) [2-adamantyl],σ-2 R affinity pKi ± SEM (n),sigma-2 receptor,5.5 ± 0.2 (3)
same,Ki,sigma-2 receptor; read-out: σ-2 R affinity Ki,3.5 µM
"CCC(C)NC(C)CC (centres unmarked) [Di-sec-butyl, di-sec-butylammonium]",σ-2 R affinity pKi ± SEM (n),sigma-2 receptor,5.2 ± 0.2 (3)
same,Ki,sigma-2 receptor; read-out: σ-2 R affinity Ki,6.3 µM
"CNCCC(Oc1ccc(C(F)(F)F)cc1)c1ccccc1 (centres unmarked) [Fluoxetine, fluoxetine, reference compound]","time spent immobile, forced-swim test","mice [2]; 10 mg.kg−1 i.p., 6 minutes, control 233 ± 10",153 ± 19 s
same,"time spent immobile, tail suspension test","mice [6]; 10 mg.kg−1, 6 minutes, control 235 ± 19",126 ± 22 s
CCCCNCCCC [Dibutyl],σ-2 R affinity pKi ± SEM (n),sigma-2 receptor,5.64 ± 0.07 (3)
same,Ki,sigma-2 receptor; read-out: σ-2 R affinity Ki,2.3 µM
"CCCC[N+](CCCC)(CCCC)CCCC [Tetrabutyl, tetrabutylammonium]",Ki,sigma-2 receptor,60 µM
CC(C)CN(CC(C)C)CC(C)C.Cl [Triisobutyl],σ-2 R affinity pKi ± SEM (n),sigma-2 receptor,5.46 ± 0.06 (3)
same,Ki,sigma-2 receptor; read-out: σ-2 R affinity Ki,3.5 µM
"C1CCC(NC2CCCCC2)CC1 [Dicyclohexyl, dicyclohexylammonium]",effect on MCF7 cells in MTS assay,MCF7 cells; MCF7 cells (sigma-2 only),without effect
same,IC50,"MDA-MB-468 cells [4]; Homo sapiens, MDA-MB-468, 24 h, read-out: pIC50 reduction of cell metabolism (converted)",126 µM
same,Ki,sigma-2 receptor,0.138 µM
"CNCCCN1c2ccccc2CCc2ccccc21 [Desipramine, desipramine]",Ki,[9],0.0043 µM
CCCCCCN.Cl [Hexyl],σ-2 R affinity pKi ± SEM (n),sigma-2 receptor,5.1 ± 0.2 (3)
same,Ki,sigma-2 receptor; read-out: σ-2 R affinity Ki,7.8 µM
"CCCCC(CC)CNCC(CC)CCCC (centres unmarked) [Bis(2-ethylhexyl), bis(2-ethylhexyl)ammonium]",pEC50 calcium response,MDA-MB-468 cells [3]; Fura-2 loaded MDA-MB-468 cells,2.9 ± 0.1
same,MAC13 tumour growth compared to vehicle control,MAC13 tumours,statistically significant reduction in tumour growth
same,tolerability in tumour-bearing mice,MAC13 tumours,no negative signs
same,effect on MCF7 cells in MTS assay,MCF7 cells,without effect
same,pIC50 reduction of cell metabolism,MDA-MB-468 cells [4],3.3 ± 0.1
same,"pIC50 reduction of cell metabolism, non-targeting control",MDA-MB-468 cells [4],3.37 ± 0.08
same,pIC50 reduction in MAC13 cell metabolism,MAC13 cells,5.3 ± 0.2
same,σ-2 R affinity pKi ± SEM (n),sigma-2 receptor,4.0 ± 0.2 (3)
same,Ki,sigma-2 receptor; read-out: σ-2 R affinity Ki,91 µM
same,mACh R affinity pKi ± SEM (n),[1],3.9 ± 0.2 (6)
same,Ki,[1],120 µM
same,mACh R Ki/σ-1 R Ki,[1],4.1
"N=C(Nc1ccc(I)cc1)NC1C2CC3CC(C2)CC1C3 (centres unmarked) [IPAG, 1-(4-iodophenyl)-3-(2-adamantyl)guanidine]",pEC50 calcium signalling,MDA-MB-468 cells [10],3.9
same,EC50,MDA-MB-468 cells [10]; read-out: EC50 calcium signalling,123 µM
same,mACh R affinity pKi ± SEM (n),[1],4.3
same,pEC50 reduction of cellular metabolic activity,MDA-MB-468 cells [11],4.6
same,EC50,MDA-MB-468 cells [11]; read-out: EC50 reduction of cellular metabolic activity,24 µM
CCCCCCCCN(CCCCCCCC)CCCCCCCC.Cl [Trioctyl],σ-2 R affinity pKi ± SEM (n),sigma-2 receptor,3.74 ± 0.06 (3)
same,Ki,sigma-2 receptor; read-out: σ-2 R affinity Ki,180 µM
CC[N+](CC)(CC)CC [Tetraethyl],σ-2 R affinity pKi ± SEM (n),sigma-2 receptor,<3 (3)
CCNCC.Cl [Diethyl],σ-2 R affinity pKi ± SEM (n),sigma-2 receptor,<3 (3)
CCCN(CCC)CCC [Tripropyl],σ-2 R affinity pKi ± SEM (n),sigma-2 receptor,4.36 ± 0.07 (3)
same,Ki,sigma-2 receptor; read-out: σ-2 R affinity Ki,44 µM
triisopentylammonium,IC50,[5],1600 µM
same,IC50,human 5-HT transporter,7800 µM
same,concentration showing a calcium response,MDA-MB-468 cells [3]; data not shown,≥ 1 mM
same,MAC13 tumour growth compared to vehicle control,MAC13 tumours,statistically significant reduction in tumour growth
same,tolerability in tumour-bearing mice,MAC13 tumours,no negative signs
same,effect on MCF7 cells in MTS assay,MCF7 cells,without effect
same,pIC50 reduction of cell metabolism,MDA-MB-468 cells [4],2.96 ± 0.06
same,"pIC50 reduction of cell metabolism, non-targeting control",MDA-MB-468 cells [4],2.9 ± 0.2
same,IC50,[8],7800 µM
same,pIC50 reduction in MAC13 cell metabolism,MAC13 cells,4.4 ± 0.2
same,higher affinity for sigma-2 receptors over sigma-1 receptors,sigma-2 receptor,200 fold
same,σ-2 R affinity pKi ± SEM (n),sigma-2 receptor,6.40 ± 0.09 (3)
same,Ki,sigma-2 receptor; read-out: σ-2 R affinity Ki,0.4 µM
same,mACh R affinity pKi ± SEM (n),[1],3.60 ± 0.11 (5)
same,Ki,[1],251 µM
same,mACh R Ki/σ-1 R Ki,[1],3.4
CCCNCCC.Cl [Dipropyl],σ-2 R affinity pKi ± SEM (n),sigma-2 receptor,4.10 ± 0.07 (3)
same,Ki,sigma-2 receptor; read-out: σ-2 R affinity Ki,79 µM
CNC [Dimethyl],σ-2 R affinity pKi ± SEM (n),sigma-2 receptor,<3 (3)
